The source made the active and inactive calls. The calls are words filed in the database; no cut-off is given here.
Experiments:
MDA-MB-231 [1] = assay: Induction of apoptosis in human MDA-MB-231 cells assessed as early apoptotic cells at 10 uM after 48 hrs by Annexin-V FITC/propidium iodide staining based flow cytometry (reference value: 2.6%); type: functional
MDA-MB-231 [2] = assay: Induction of apoptosis in human MDA-MB-231 cells assessed as live cells at 10 uM after 48 hrs by Annexin-V FITC/propidium iodide staining based flow cytometry (reference value: 96.1%); type: functional
MDA-MB-231 [3] = assay: Induction of apoptosis in human MDA-MB-231 cells assessed as increase in cleaved caspase-3 expression after 48 hrs by Western blot method; type: functional, cell-based
MDA-MB-231 [4] = assay: Induction of apoptosis in human MDA-MB-231 cells assessed as live cells at 5 uM after 48 hrs by Annexin-V FITC/propidium iodide staining based flow cytometry (reference value: 96.1%); type: functional
MDA-MB-231 [5] = assay: Induction of apoptosis in human MDA-MB-231 cells assessed as early apoptotic cells at 2 uM after 48 hrs by Annexin-V FITC/propidium iodide staining based flow cytometry (reference value: 2.6%); type: functional
[6] = target: Signal transducer and activator of transcription 3 (Homo sapiens) (UniProt P40763); assay: Inhibition of STAT3 acetylation at Lys-685 residue in human MDA-MB-231 cells assessed as increase in PTPN6 mRNA at 1- 10 uM expression after 48 hrs by RT-PCR method; type: cell-based
Sequence of Signal transducer and activator of transcription 3 (Homo sapiens) (P40763 whole entry): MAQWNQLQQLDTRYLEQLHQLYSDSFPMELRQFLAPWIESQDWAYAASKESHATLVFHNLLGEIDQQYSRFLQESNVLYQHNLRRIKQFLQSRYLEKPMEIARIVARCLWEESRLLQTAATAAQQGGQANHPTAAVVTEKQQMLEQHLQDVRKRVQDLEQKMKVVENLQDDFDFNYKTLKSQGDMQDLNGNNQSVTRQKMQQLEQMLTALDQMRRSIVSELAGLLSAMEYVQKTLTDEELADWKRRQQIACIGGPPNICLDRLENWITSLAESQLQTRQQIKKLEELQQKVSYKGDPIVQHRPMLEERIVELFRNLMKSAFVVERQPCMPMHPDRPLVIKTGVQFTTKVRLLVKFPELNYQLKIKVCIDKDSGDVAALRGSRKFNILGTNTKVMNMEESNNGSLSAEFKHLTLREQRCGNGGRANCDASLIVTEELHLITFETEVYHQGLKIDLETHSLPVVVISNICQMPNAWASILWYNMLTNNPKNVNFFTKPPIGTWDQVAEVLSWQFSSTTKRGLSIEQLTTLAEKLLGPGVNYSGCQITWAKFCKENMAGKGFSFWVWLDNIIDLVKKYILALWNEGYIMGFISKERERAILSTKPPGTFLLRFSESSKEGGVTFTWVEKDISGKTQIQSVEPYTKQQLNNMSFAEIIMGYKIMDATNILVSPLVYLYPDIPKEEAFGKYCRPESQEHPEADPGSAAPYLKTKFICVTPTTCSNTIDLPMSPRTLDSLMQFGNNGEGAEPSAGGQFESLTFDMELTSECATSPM

MDA-MB-231 [7] = assay: Induction of apoptosis in human MDA-MB-231 cells assessed as necrotic cells at 1 uM after 48 hrs by Annexin-V FITC/propidium iodide staining based flow cytometry (reference value: 0.8%); type: functional
[8] = target: Signal transducer and activator of transcription 3 (Homo sapiens) (UniProt P40763); assay: Inhibition of STAT3 acetylation at Lys-685 residue in human MDA-MB-231 cells after 48 hrs by Western blot method; type: cell-based
MDA-MB-231 [9] = assay: Induction of apoptosis in human MDA-MB-231 cells assessed as early apoptotic cells at 5 uM after 48 hrs by Annexin-V FITC/propidium iodide staining based flow cytometry (reference value: 2.6%); type: functional
MDA-MB-231 [10] = assay: Induction of apoptosis in human MDA-MB-231 cells assessed as increase in cleaved caspase-9 expression after 48 hrs by Western blot method; type: functional, cell-based
MDA-MB-231 [11] = assay: Induction of apoptosis in human MDA-MB-231 cells assessed as late apoptotic cells at 10 uM after 48 hrs by Annexin-V FITC/propidium iodide staining based flow cytometry (reference value: 0.4%); type: functional
MDA-MB-231 [12] = assay: Induction of apoptosis in human MDA-MB-231 cells assessed as necrotic cells at 2 uM after 48 hrs by Annexin-V FITC/propidium iodide staining based flow cytometry (reference value: 0.8%); type: functional
[13] = target: Signal transducer and activator of transcription 3 (Homo sapiens) (UniProt P40763); assay: Inhibition of STAT3 phosphorylation at Tyr-705 residue in human MDA-MB-231 cells assessed as decrease in Cyclin D1 mRNA expression at 1 to 5 uM after 48 hrs by RT-PCR method; type: cell-based
[14] = target: Signal transducer and activator of transcription 3 (Homo sapiens) (UniProt P40763); assay: Inhibition of STAT3 phosphorylation at Tyr-705 residue in human MDA-MB-231 cells after 48 hrs by Western blot method; type: cell-based
Mus musculus [15] = assay: Toxicity in Kunming mouse implanted with mouse 4T1 cells assessed as body weight loss at 10 to 20 mg/kg, po qd for 14 days measured during compound dosing; type: organism-based; settings: in vivo, 336 h
MDA-MB-231 [16] = assay: Induction of apoptosis in human MDA-MB-231 cells assessed as early apoptotic cells at 1 uM after 48 hrs by Annexin-V FITC/propidium iodide staining based flow cytometry (reference value: 2.6%); type: functional
MDA-MB-231 [17] = assay: Induction of apoptosis in human MDA-MB-231 cells assessed as live cells at 2 uM after 48 hrs by Annexin-V FITC/propidium iodide staining based flow cytometry (reference value: 96.1%); type: functional
MDA-MB-231 [18] = assay: Induction of apoptosis in human MDA-MB-231 cells assessed as late apoptotic cells at 1 uM after 48 hrs by Annexin-V FITC/propidium iodide staining based flow cytometry (reference value: 0.4%); type: functional
MDA-MB-231 [19] = assay: Induction of apoptosis in human MDA-MB-231 cells assessed as live cells at 1 uM after 48 hrs by Annexin-V FITC/propidium iodide staining based flow cytometry (reference value: 96.1%); type: functional
MDA-MB-231 [20] = assay: Induction of apoptosis in human MDA-MB-231 cells assessed as increase in cleaved caspase-8 expression after 48 hrs by Western blot method; type: functional, cell-based
[21] = target: Signal transducer and activator of transcription 3 (Homo sapiens) (UniProt P40763); assay: Inhibition of STAT3 phosphorylation at Tyr-705 residue in human MDA-MB-231 cells assessed as decrease in Cyclin D1 protein expression at 1 to 5 uM after 48 hrs by Western blot method; type: cell-based
[22] = target: Signal transducer and activator of transcription 3 (Homo sapiens) (UniProt P40763); assay: Inhibition of STAT3 acetylation at Lys-685 residue in human MDA-MB-231 cells assessed as increase in CDKN2A mRNA at 1- 10 uM expression after 48 hrs by RT-PCR method; type: cell-based
MDA-MB-231 [23] = assay: Potency index, ratio of resveratrol IC50 to compound IC50 for human MDA-MB-231 cells; type: functional
[24] = target: Signal transducer and activator of transcription 3 (Homo sapiens) (UniProt P40763); assay: Inhibition of STAT3 acetylation at Lys-685 residue in human MDA-MB-231 cells assessed as increase in DLEC1 mRNA at 1- 10 uM expression after 48 hrs by RT-PCR method; type: cell-based
MDA-MB-231 [25] = assay: Induction of apoptosis in human MDA-MB-231 cells assessed as live cells at 8 uM after 48 hrs by Annexin-V FITC/propidium iodide staining based flow cytometry (reference value: 96.1%); type: functional
[26] = target: Signal transducer and activator of transcription 3 (Homo sapiens) (UniProt P40763); assay: Inhibition of STAT3 phosphorylation at Tyr-705 residue in human MDA-MB-231 cells assessed as decrease in Bcl2 protein expression at 1 to 5 uM after 48 hrs by Western blot method; type: cell-based
MDA-MB-231 [27] = assay: Induction of apoptosis in human MDA-MB-231 cells assessed as late apoptotic cells at 8 uM after 48 hrs by Annexin-V FITC/propidium iodide staining based flow cytometry (reference value: 0.4%); type: functional
MDA-MB-231 [28] = assay: Potency index, ratio of caffeic acid IC50 to compound IC50 for human MDA-MB-231 cells; type: functional
MDA-MB-231 [29] = assay: Antiproliferative activity against human MDA-MB-231 cells assessed as inhibition of colony formation after 48 hrs by crystal violet staining based assay; type: functional, cell-based
MDA-MB-231 [30] = assay: Induction of apoptosis in human MDA-MB-231 cells assessed as early apoptotic cells at 8 uM after 48 hrs by Annexin-V FITC/propidium iodide staining based flow cytometry (reference value: 2.6%); type: functional
MDA-MB-231 [31] = assay: Induction of apoptosis in human MDA-MB-231 cells assessed as late apoptotic cells at 2 uM after 48 hrs by Annexin-V FITC/propidium iodide staining based flow cytometry (reference value: 0.4%); type: functional
MDA-MB-231 [32] = assay: Induction of apoptosis in human MDA-MB-231 cells assessed as necrotic cells at 5 uM after 48 hrs by Annexin-V FITC/propidium iodide staining based flow cytometry (reference value: 0.8%); type: functional
MDA-MB-231 [33] = assay: Induction of apoptosis in human MDA-MB-231 cells assessed as late apoptotic cells at 5 uM after 48 hrs by Annexin-V FITC/propidium iodide staining based flow cytometry (reference value: 0.4%); type: functional
4T1 = assay: Antitumor activity against mouse 4T1 cells implanted in Kunming mouse assessed as tumor growth inhibition at 10 to 20 mg/kg, po qd for 14 days; type: functional, organism-based
[34] = target: Signal transducer and activator of transcription 3 (Homo sapiens) (UniProt P40763); assay: Inhibition of STAT3 phosphorylation at Tyr-705 residue in human MDA-MB-231 cells assessed as decrease in Bcl2 mRNA expression at 1 to 5 uM after 48 hrs by RT-PCR method; type: cell-based
MDA-MB-231 [35] = assay: Induction of apoptosis in human MDA-MB-231 cells assessed as necrotic cells at 8 uM after 48 hrs by Annexin-V FITC/propidium iodide staining based flow cytometry (reference value: 0.8%); type: functional
MDA-MB-231 [36] = assay: Induction of apoptosis in human MDA-MB-231 cells assessed as necrotic cells at 10 uM after 48 hrs by Annexin-V FITC/propidium iodide staining based flow cytometry (reference value: 0.8%); type: functional
[37] = Growth inhibition of human HT-29 cells after 48 hrs by MTT assay; type: functional, cell-based; settings: HT-29, 48 h
[38] = Effect on total STAT3 protein level in human MDA-MB-231 cells at 1 to 5 uM after 48 hrs by Western blot method; type: ADME, cell-based; settings: mda-mb-231, 48 h
[39] = Growth inhibition of human MDA-MB-231 cells after 48 hrs by MTT assay; type: functional, cell-based; settings: MDA-MB-231, 48 h
Mus musculus [40] = assay: In vivo inhibition of STAT3 phosphorylation at Tyr-705 residue in tumor of Kunming mouse implanted with mouse 4T1 cells at 10 to 20 mg/kg, po qd for 14 days; type: functional, organism-based

Structure (SMILES): COc1cc(/C=C/c2ccc(NC(=O)/C=C/c3cc(OC)c(OC)c(OC)c3)cc2)cc(OC)c1
- Activity (MDA-MB-231 [1]): 74.6%
- Activity (MDA-MB-231 [2]): 18.5%
- Activity (MDA-MB-231 [3]): Dose-dependent effect
- Activity (MDA-MB-231 [4]): 78%
- Activity (MDA-MB-231 [5]): 9.8%
- inhibition [6]: Active
- Activity (MDA-MB-231 [7]): 1.3%
- inhibition [8]: Dose-dependent effect
- Activity (MDA-MB-231 [9]): 16.2%
- Activity (MDA-MB-231 [10]): Dose-dependent effect
- Activity (MDA-MB-231 [11]): 10.6%
- Activity (MDA-MB-231 [12]): 1.3%
- inhibition [13]: Active
- inhibition [14]: Dose-dependent effect
- Activity (Mus musculus [15]): Non-Toxic
- Activity (MDA-MB-231 [16]): 7.7%
- Activity (MDA-MB-231 [17]): 87.5%
- Activity (MDA-MB-231 [18]): 1.3%
- Activity (MDA-MB-231 [19]): 89.7%
- Activity (MDA-MB-231 [20]): Active
- inhibition [21]: Active
- inhibition [22]: Active
- Ratio IC50 (MDA-MB-231 [23]): >50
- inhibition [24]: Active
- Activity (MDA-MB-231 [25]): 51.8%
- inhibition [26]: Active
- Activity (MDA-MB-231 [27]): 6.2%
- Ratio IC50 (MDA-MB-231 [28]): >50
- inhibition (MDA-MB-231 [29]): Dose-dependent effect
- Activity (MDA-MB-231 [30]): 37.1%
- Activity (MDA-MB-231 [31]): 1.4%
- Activity (MDA-MB-231 [32]): 1.1%
- Activity (MDA-MB-231 [33]): 4.7%
- TGI (4T1): Active
- inhibition [34]: Active
- Activity (MDA-MB-231 [35]): 0.6%
- Activity (MDA-MB-231 [36]): 0.7%
- IC50 [37]: 1820 nM
- Activity [38]: Non-Toxic
- IC50 [39]: 2140 nM
- inhibition (Mus musculus [40]): Active
